The results in this text go back to patent US20240360146A1, “BRUTON'S TYROSINE KINASE AND MUTANT DEGRADER, COMPOSITION AND APPLICATION THEREOF” (HANGZHOU HEALZEN THERAPEUTICS CO., LTD., priority 2021, published 2024).

The test deals with T1, BTK (Homo sapiens, UniProt Q06187).
T1 construct: endogenous in cells; host or cells: Mino cells
T1 sequence (Q06187 whole entry): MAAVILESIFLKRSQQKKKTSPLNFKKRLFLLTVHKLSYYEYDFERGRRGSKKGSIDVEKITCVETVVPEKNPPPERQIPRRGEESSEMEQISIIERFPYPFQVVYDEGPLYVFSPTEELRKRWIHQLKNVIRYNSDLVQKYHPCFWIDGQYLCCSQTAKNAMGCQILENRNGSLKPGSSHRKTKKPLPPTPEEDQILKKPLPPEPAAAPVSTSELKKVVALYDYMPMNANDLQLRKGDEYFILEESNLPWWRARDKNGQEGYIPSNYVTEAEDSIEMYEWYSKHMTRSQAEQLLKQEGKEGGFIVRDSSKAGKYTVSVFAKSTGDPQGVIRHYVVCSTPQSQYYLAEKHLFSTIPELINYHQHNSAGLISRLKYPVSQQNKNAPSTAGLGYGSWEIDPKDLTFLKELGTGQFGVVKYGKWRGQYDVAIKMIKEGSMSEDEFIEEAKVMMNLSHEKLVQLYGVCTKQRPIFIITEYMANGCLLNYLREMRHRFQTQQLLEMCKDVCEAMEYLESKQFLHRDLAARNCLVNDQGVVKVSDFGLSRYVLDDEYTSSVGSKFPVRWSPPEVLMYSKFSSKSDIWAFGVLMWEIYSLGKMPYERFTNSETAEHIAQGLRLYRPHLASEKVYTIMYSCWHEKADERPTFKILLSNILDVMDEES
Kind of test: BTK degradation activity test in Mino cells. It counts as cell-based. The note with it: 16 h incubation, Western blot or Elisa. As for the experimental part: Mino cell line cells were seeded at 500,000 to 1,000,000 cells/well in a 6-well plate. The compounds were diluted to different concentrations and added to the plate, and after 16 h of incubation, cells were harvested. After lysing the cells, the total protein concentration in each well was determined using the BCA method. The amount of BTK was determined using Western blot or Elisa method. The amount of undegraded BTK protein at each drug concentration was compared with the amount of BTK protein in the blank control group to calculate the degradation rate. The degradation curve was drawn based on the degradation rate at each concentration, and the half degradation concentration (DC50) was calculated by fitting.
On the technique in general: In western blotting, separated proteins are transferred to a membrane and probed.
What is called DC50 is the midpoint of the concentration-degradation curve. The low end stands for a more potent degrader, the high end for a less potent degrader. `CN1CCN(C2CCCN(c3nnc(C(N)=O)c(Nc4ccc(C5CCN(C6CN(c7ccc8c(c7)C(=O)N(C7CCC(=O)NC7=O)C8=O)C6)CC5)cc4)n3)C2)C1=O` (stereo not shown) [Compound 077, 5-((4-(1-(1-(2-(2,6-dioxopiperidin-3-yl)-1,3-dioxoisoindol-5-yl)azetidin-3-yl)piperidin-4-yl)phenyl)amino)-3-(3-(3-methyl-2-oxoimidazolin-1-yl)piperidin-1-yl)-1,2,4-triazin-6-carboxamide] yielded a DC50 of less than 1 nM. The result for `CN1CCN(C2CC3CC2N(c2nnc(C(N)=O)c(Nc4ccc(C5CCN(C6CN(c7cc8c(cc7F)C(=O)N(C7CCC(=O)NC7=O)C8=O)C6)CC5)cc4)n2)C3)C1=O` (stereo not shown) [Compound 051, 5-((4-(1-(1-(2-(2,6-dioxopiperidin-3-yl)-6-fluoro-1,3-dioxoisoindolin-5-yl)azetidin-3-yl)piperidin-4-yl)phenyl)amino)-3-(-6-(3-methyl-2-oxoimidazolin-1-yl)-2-azabicyclo[2.2.1]heptan-2-yl)-1,2,4-triazin-6-carboxamide] reads less than 1 nM. For `CCc1nc(C(N)=O)c(Nc2ccc(C3(C)CCN(C4CN(c5ccc6c(c5)C(=O)N(C5CCC(=O)NC5=O)C6=O)C4)CC3)cc2)nc1N1CCCC(N2CCN(C)C2=O)C1` (stereo not shown) [Compound 007], the DC50 is less than 1 nM. The figure for `NC(=O)c1ncc(N2CCCC(N3CCN(C4COC4)C3=O)C2)nc1Nc1ccc(N2CC3(C2)CN(c2ccc4c(c2)C(=O)N(C2CCC(=O)NC2=O)C4=O)C3)cc1` (stereo not shown) [Compound 018, 3-((4-(6-(2-(2,6-dioxopiperidin-3-yl)-1,3-dioxoisoindol-5-yl)-2,6-diazaspirocyclo[3.3]heptan-2-yl)phenyl)amino)-5-(3-(3-(oxetan-3-yl)-2-oxoimidazolin-1-yl)piperidin-1-yl)pyrazin-2-carboxamide] is less than 1 nM; for `NC(=O)c1nnc(N2CCCC(N3CCN(C(F)(F)F)C3=O)C2)nc1Nc1ccc(C2CCN(CC3CCN(c4ccc5c(c4)C(=O)N(C4CCC(=O)NC4=O)C5=O)CC3)CC2)cc1` (stereo not shown) [Compound 056, 5-((4-(1-((1-(2-(2,6-dioxopiperidin-3-yl)-1,3-dioxoisoindol-5-yl)piperidin-4-yl)methyl)piperidin-4-yl)phenyl)amino)-3-(3-(2-oxo-3-(trifluoromethyl)imidazolin-1-yl)piperidin-1-yl)-1,2,4-triazin-6-carboxamide] it is less than 1 nM. In turn, `NC(=O)c1nnc(N2CCCC(N3CCN(c4ccccc4)C3=O)C2)nc1Nc1ccc(C2CCN(CC3CCN(c4cc5c(cc4F)C(=O)N(C4CCC(=O)NC4=O)C5=O)CC3)CC2)cc1` (stereo not shown) [Compound 098, 5-((4-(1-((1-(2-(2,6-dioxopiperidin-3-yl)-6-fluoro-1,3-dioxoisoindol-5-yl)piperidin-4-yl)methyl)piperidin-4-yl)phenyl)amino)-3-(3-(2-oxo-3-phenylimidazolin-1-yl)piperidin-1-yl)-1,2,4-triazin-6-carboxamide] gave a DC50 of less than 1 nM.

In the case of `NC(=O)c1ncc(N2CCCC(N3CCN(C4COC4)C3=O)C2)nc1Nc1ccc(N2CCN(CC3CN(c4ccc5c(c4)C(=O)N(C4CCC(=O)NC4=O)C5=O)C3)CC2)cc1` (stereo not shown) [Compound 016, 3-((4-(4-((1-(2-(2,6-dioxopiperidin-3-yl)-1,3-dioxoisoindol-5-yl)azetidine-3-yl)methyl)piperazin-1-yl)phenyl)amino)-5-(3-(3-(oxetan-3-yl)-2-oxoimidazolin-1-yl)piperidin-1-yl)pyrazin-2-carboxamide], the DC50 was less than 1 nM. In the case of `NC(=O)c1nnc(N2CCCC(N3CCN(C4CCOCC4)C3=O)C2)nc1Nc1ccc(C2CCN(CC3CCN(c4ccc5c(c4)C(=O)N(C4CCC(=O)NC4=O)C5=O)CC3)CC2)cc1` (stereo not shown) [Compound 063, 5-((4-(1-((1-(2-(2,6-dioxopiperidin-3-yl)-1,3-dioxoisoindol-5-yl)piperidin-4-yl)methyl)piperidin-4-yl)phenyl)amino)-3-(3-(2-oxo-3-(tetrahydro-2H-pyran-4-yl)imidazolin-1-yl)piperidin-1-yl)-1,2,4-triazin-6-carboxamide], the half-maximal degradation concentration (DC50) is greater than 1 nM.

In turn, `CN1CCN(C2CCCN(c3nnc(C(N)=O)c(Nc4ccc(C5CCN(C6CCN(c7ccc8c(c7)C(=O)N(C7CCC(=O)NC7=O)C8=O)CC6)CC5)cc4)n3)C2)C1=O` (stereo not shown) [Compound 083, 5-((4-(1′-(2-(2,6-dioxopiperidin-3-yl)-1,3-dioxoisoindol-5-yl)-[1,4′-bipiperidin]-4-yl)phenyl)amino)-3-(3-(3-methyl-2-oxoimidazolin-1-yl)piperidin-1-yl)-1,2,4-triazin-6-carboxamide] displayed a DC50 of less than 1 nM. Regarding `CN1CCN(C2CC3CC2N(c2nnc(C(N)=O)c(Nc4ccc(N5CCN(CC6CCN(c7ccc8c(c7)C(=O)N(C7CCC(=O)NC7=O)C8=O)CC6)CC5)cc4)n2)C3)C1=O` (stereo not shown) [Compound 108, 5-((4-(4-((1-(2-(2,6-dioxopiperidin-3-yl)-1,3-dioxoisoindol-5-yl)piperidin-4-yl)methyl)piperazin-1-yl)phenyl)amino)-3-(6-(3-methyl-2-oxoimidazolin-1-yl)-2-azabicyclo[2.2.1]heptan-2-yl)-1,2,4-triazin-6-carboxamide], the DC50 was greater than 1 nM. Molecule `NC(=O)c1nnc(N2CCCC(N3CCN(c4ccccc4)C3=O)C2)nc1Nc1ccc(C2CCN(C3CN(c4ccc5c(c4)C(=O)N(C4CCC(=O)NC4=O)C5=O)C3)CC2)cc1` (stereo not shown) [Compound 090, 5-((4-(1-(1-(2-(2,6-dioxopiperidin-3-yl)-1,3-dioxoisoindol-5-yl)azetidin-3-yl)piperidin-4-yl)phenyl)amino)-3-(3-(2-oxo-3-phenylimidazolin-1-yl)piperidin-1-yl)-1,2,4-triazin-6-carboxamide] showed a DC50 of less than 1 nM. Molecule `CN1CCN(C2CC3CCC2N(c2nnc(C(N)=O)c(Nc4ccc(C5CCN(CC6CCN(c7ccc8c(c7)C(=O)N(C7CCC(=O)NC7=O)C8=O)CC6)CC5)cc4)n2)C3)C1=O` (stereo not shown) [Compound 075, 5-((4-(1-((1-(2-(2,6-dioxopiperidin-3-yl)-1,3-dioxoisoindol-5-yl)piperidin-4-yl)methyl)piperidin-4-yl)phenyl)amino)-3-(6-(3-methyl-2-oxoimidazolin-1-yl)-2-azabicyclo[2.2.2]octan-2-yl)-1,2,4-triazin-6-carboxamide] registered a DC50 greater than 1 nM.

Consider `Cn1c(=O)n(C2CCC(=O)NC2=O)c2ccc(N3CCC(CN4CCC(c5ccc(Nc6nc(N7CCCC(N8CCN(c9ccccc9)C8=O)C7)nnc6C(N)=O)cc5)CC4)CC3)cc21` (stereo not shown) [Compound 101], for which the DC50 is less than 1 nM. The figure for `CN1CCN([C@@H]2CCCN(c3nnc(C(N)=O)c(Nc4ccc(N5CCN(CC6CCN(c7cccc8c(C(=O)NC9CCC(=O)NC9=O)cccc78)CC6)CC5)c(F)c4)n3)C2)C1=O` (stereo partly drawn) [Compound 249, 5-((4-(4-((1-(5-((2,6-dioxopiperidin-3-yl)carbamoyl)naphthalen-1-yl)piperidin-4-yl)methyl)piperazin-1-yl)-3-fluorophenyl)amino)-3-((R)-3-(3-methyl-2-oxoimidazolidin-1-yl)piperidin-1-yl)-1,2,4-triazin-6-carboxamide] is less than 1 nM. On to `NC(=O)c1nnc(N2CCCC(N3CCN(c4ccccc4)C3=O)C2)nc1Nc1ccc(C2CCN(C3CCN(c4ccc5c(c4)C(=O)N(C4CCC(=O)NC4=O)C5=O)CC3)CC2)cc1` (stereo not shown) [Compound 096, 5-((4-(1′-(2-(2,6-dioxopiperidin-3-yl)-1,3-dioxoisoindol-5-yl)-[1,4′-bipiperidin]-4-yl)phenyl)amino)-3-(3-(2-oxo-3-phenylimidazolin-1-yl)piperidin-1-yl)-1,2,4-triazin-6-carboxamide], for which the DC50 was less than 1 nM. The molecule `COc1cc(C(N)=O)c(Nc2ccc(C3(C)CCN(CC4CCN(c5ccc6c(c5)C(=O)N(C5CCC(=O)NC5=O)C6=O)C4)CC3)cc2)nc1N1CCCC(N2CCN(C)C2=O)C1` (stereo not shown) [Compound 038, 2-((4-(1-((1-(2-(2,6-dioxopiperidin-3-yl)-1,3-dioxoisoindolin-5-yl)pyrrolidin-3-yl)methyl)-4-methylpiperidin-4-yl)phenyl)amino)-5-methoxy-6-(3-(3-methyl-2-oxoimidazolin-1-yl)piperidin-1-yl)nicotinamide] registered a DC50 of less than 1 nM. The result for `CN1CCN([C@@H]2CCCN(c3nnc(C(N)=O)c(Nc4ccc(N5CCN(CC#Cc6ccn7c(N8CCC(=O)NC8=O)cnc7c6)CC5)c(F)c4)n3)C2)C1=O` [Compound 246, (R)-5-((4-(4-(3-(3-(2,4-dioxotetrahydropyrimidin-1(2H)-yl)imidazo[1,2-a]pyridin-7-yl)propan-2-yn-1-yl)piperazin-1-yl)-3-fluorophenyl)amino)-3-(3-(3-methyl-2-oxoimidazolidin-1-yl)piperidin-1-yl)-1,2,4-triazin-6-carboxamide] reads less than 1 nM. Regarding `NC(=O)c1ncc(N2CCCC(N3CCN(C4COC4)C3=O)C2)nc1Nc1ccc2c(c1)CCN(CC1CCN(c3ccc4c(c3)C(=O)N(C3CCC(=O)NC3=O)C4=O)CC1)C2` (stereo not shown) [Compound 031, 3-((2-((1-(2-(2,6-dioxopiperidin-3-yl)-1,3-dioxoisoindol-5-yl)piperidin-4-yl)methyl)-1,2,3,4-tetrahydroisoquinolin-6-yl)amino)-5-(3-(3-(oxetan-3-yl)-2-oxoimidazolin-1-yl)piperidin-1-yl)pyrazin-2-carboxamide], the DC50 was less than 1 nM. The figure for `CN1CCN(C2CC3CC2N(c2nnc(C(N)=O)c(Nc4ccc(C5CCN(CC6CCN(c7ccc8c(c7)CN(C7CCC(=O)NC7=O)C8=O)CC6)CC5)cc4)n2)C3)C1=O` (stereo not shown) [Compound 113, 5-((4-(1-((1-(2-(2,6-dioxopiperidin-3-yl)-1-oxoisoindol-5-yl)piperidin-4-yl)methyl)piperidin-4-yl)phenyl)amino)-3-(6-(3-methyl-2-oxoimidazolin-1-yl)-2-azabicycloheptan-2-yl)-1,2,4-triazin-6-carboxamide] is less than 1 nM.
